Measured values published in patent US10709692B2, “Isoxazolidine derived inhibitors of receptor interacting protein kinase 1 (RIPK1)” (Denali Therapeutics Inc., priority 2015, dated 2020).
Where “and” joins values, the source holds several entries; their conditions need not be identical. Equal values may be shown once.

Target: T1, receptor interacting protein kinase 1 (GST-hRIPK1 (8-327)) (Homo sapiens, UniProt Q13546)
T1 construct: GST-hRIPK1 (8-327) enzyme was generated by Proteros GmbH by Baculovirus expression system
T1 sequence (Q13546 8-327): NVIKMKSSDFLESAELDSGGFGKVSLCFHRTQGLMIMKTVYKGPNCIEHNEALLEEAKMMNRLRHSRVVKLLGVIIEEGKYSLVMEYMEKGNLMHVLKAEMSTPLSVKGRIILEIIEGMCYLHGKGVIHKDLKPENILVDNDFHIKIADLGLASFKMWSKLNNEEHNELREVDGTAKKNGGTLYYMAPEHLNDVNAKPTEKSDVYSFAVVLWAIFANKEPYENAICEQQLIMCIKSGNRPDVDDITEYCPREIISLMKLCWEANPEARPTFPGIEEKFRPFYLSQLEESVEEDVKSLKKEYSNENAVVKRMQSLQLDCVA
Assay: Fluorescent Polarization Binding (FP Binding) assay
Settings: 10 nM GST-hRIPK1 (8-327), 5 nM fluorescent-labeled ligand, 30 min at RT
Protocol: Fluorescent Polarization Binding (FP Binding) assay (Berger S. B. et al. (2015) Cell Death Discovery, 1: 15009; Maki J. L. et al. (2012) Anal Biochem., 427(2): 164-174) was performed in polystyrene low volume 384-well black plate, at Room Temperature (RT) in a final volume of 10.1 μl/well using 10 nM of GST-hRIPK1 (8-327) enzyme and 5 nM of fluorescent-labeled ligand (14-(2-{[3-({2-{[4-(cyanomethyl)phenyl]amino}-6-[(5-cyclopropyl-1H-pyrazol-3-yl)amino]-4-pyrimidinyl}amino) propyl]amino}-2-oxoethyl)-16,16,18,18-tetramethyl-6,7,7a,8a,9,10,16,18-octahydrobenzo[2″3″]indolizino[8″, 0.7″:5′,6′]pyrano[3′,2′:3,4]pyrido[1,2-a]indol-5-ium-2-sulfonate.
Test compounds were serially diluted in DMSO at 100 fold final concentrations in the assay (1% DMSO final). In each well of a 384-well Plate were dispensed 0.1 μL of compound solution (or DMSO for controls) followed by 5 μL of GST-hRIPK1 (8-327) at twice the final concentrations in assay-buffer (50 mM HEPES pH 7.5, 10 mM NaCl, 50 mM MgCl2, 0.02% CHAPS, 0.5 mM DTT and 0.01% Pluronic F127). For negative control the enzyme addition was replaced by assay buffer only.
After addition of 5 μL of fluorescent-labeled ligand at twice the final concentrations in assay buffer, the plate was incubated at RT for 30 min. At the end, the binding was measured as FP value with the Envision (PerkinElmer) plate reader using filter for an excitation λ=531 nm FP and an emission λ=595 nm FP (S & P-pol).
Test compound inhibition was expressed as percent inhibition of internal assay controls. For concentration response curves, normalized data is fit and IC50 determined using XL-fit (IDBS) for Excel. IC50 were averaged to determine a mean value, for a minimum of two independent experiments.
Receptor interacting protein kinase 1 activity of exemplary compounds was determined according to the above general procedures.
Receptor interacting protein kinase 1 activity of certain compounds was determined according to the above general procedures.

Row | Structure (SMILES) | IC50
1 | CC1(C(=O)N2OCC[C@H]2c2ccc(F)cc2)CCCOC1 (single isomer, unassigned) [Compound 35] | < 1000 nM
2 | CC1(C(=O)N2OCC[C@H]2c2ccc(F)cc2)CCCOC1 (single isomer, unassigned) [Compound 36] | < 1000 nM
3 | CC1(C(=O)N2OCC[C@H]2c2ccc(F)cc2)CCOC1 (single isomer, unassigned) [Compound 40] | < 1000 nM
4 | CC1(C(=O)N2OCC[C@H]2c2ccc(F)cc2)CCOC1 (single isomer, unassigned) [Compound 41] | < 1000 nM
5 | O=C(C1CCO1)N1OCC[C@H]1c1ccccc1 (single isomer, unassigned) [Compound 52] | > 10000 nM
6 | O=C(C1CCO1)N1OCC[C@H]1c1ccccc1 (single isomer, unassigned) [Compound 53] | 1000 to 10000 nM
7 | CC(C)(C)C(=O)N1OCC[C@H]1c1ccc(F)nc1 (single isomer, unassigned) [Compound 61] | < 1000 nM and 28 nM
8 | CC(C)(C)C(=O)N1OCC[C@@H]1c1ccc(F)nc1 (single isomer, unassigned) [Compound 62] | 1000 to 10000 nM
9 | CC(C)(C)C(=O)N1OCCC1c1ccc(F)cc1 (single isomer, unassigned) [Compound 74, 1-[3-(4-Fluorophenyl)-1,2-oxazolidin-2-yl]-2,2-dimethylpropan-1-one] | > 10000 nM
10 | CC(C(=O)N1OCCC1c1ccc(C#N)cc1)C(F)F (single isomer, unassigned) [Compound 91] | < 1000 nM
11 | CC(C(=O)N1OCCC1c1ccc(C#N)cc1)C(F)F (single isomer, unassigned) [Compound 92] | < 1000 nM
12 | CC(C(=O)N1OCC[C@H]1c1ccc(F)cc1)C(F)(F)F (single isomer, unassigned) [Compound 94] | < 1000 nM
13 | CC(C(=O)N1OCC[C@H]1c1ccc(F)cc1)C(F)(F)F (single isomer, unassigned) [Compound 95] | < 1000 nM
14 | [2H]C1([2H])C[C@@H](c2ccc(C#N)cc2)N(C(=O)C(C)(C)C)O1 (single isomer, unassigned) [Compound 98] | < 1000 nM
15 | C[C@H]1C[C@@H](c2ccc(C#N)cc2)N(C(=O)C(C)(C)C)O1 (single isomer, unassigned) [Compound 99] | < 1000 nM
16 | C[C@@H]1C[C@@H](c2ccc(C#N)cc2)N(C(=O)C(C)(C)C)O1 (single isomer, unassigned) [Compound 100] | < 1000 nM
17 | CC(C)(C)C(=O)N1OCC[C@@H]1c1cc(F)cc(F)c1 (single isomer, unassigned) [Compound 102] | < 1000 nM
18 | CC(C)(C)C(=O)N1OCC[C@H]1c1cc(F)cc(F)c1 (single isomer, unassigned) [Compound 103] | < 1000 nM
19 | Cc1cncc([C@@H]2CCON2C(=O)C(C)(C)C)n1 (single isomer, unassigned) [Compound 107] | < 1000 nM
20 | CC(C)(C)C(=O)N1OCC[C@H]1c1cc(F)cc(C#N)c1 (single isomer, unassigned) [Compound 109] | < 1000 nM and 7 nM
21 | CC1(C(=O)N2OCC[C@H]2c2ccc(F)nc2)CC1(F)F (single isomer, unassigned) [Compound 112] | < 1000 nM
22 | CC1(C(=O)N2OCC[C@H]2c2ccc(F)nc2)CC1(F)F (single isomer, unassigned) [Compound 113] | < 1000 nM
23 | CC1(C(=O)N2OCC[C@H]2c2ccc(F)cc2)CC1(F)F (single isomer, unassigned) [Compound 114] | < 1000 nM
24 | CC1(C(=O)N2OCC[C@H]2c2ccc(F)cc2)CC1(F)F (single isomer, unassigned) [Compound 115] | < 1000 nM
25 | CC(C(=O)N1OCC[C@H]1c1ccc(F)nc1)C1CC1 (single isomer, unassigned) [Compound 116] | < 1000 nM
26 | CC(C(=O)N1OCC[C@H]1c1ccc(F)nc1)C1CC1 (single isomer, unassigned) [Compound 117] | < 1000 nM
27 | Cc1cnc([C@@H]2CCON2C(=O)C(C)C(F)(F)F)cn1 (single isomer, unassigned) [Compound 129] | < 1000 nM
